The subject of test [1] is E. faecalis ATCC29212. Description: MIC, broth microdilution. The format is cell-based, Enterococccus faecalis. Particulars: Enterococcus faecalis, ATCC29212, 24 h, ATCC strain, read-out: MIC E. faecalis 29212. How it is done: (§1) Antimicrobial activity of the compounds was studied by determination of minimal inhibitory concentrations (MIC) according to the NCCLS guidelines M7-A2 using the microbroth dilution methods. The bacteria strains were grown on trypticase soy agar (Becton Dickinson) at 37 °C for 24 h. Inocula were prepared in TCE (tryptone 0.1%, […], wt/vol) by ajusting the turbidity at 623 nm to obtain 1–3 10^5 CFU/mL.
(§2) Antimicrobial activities of the compounds were determined by using a broth microdilution method performed in sterile 96-well microplates. All compounds were solubilized in water at a concentration of 10 mM and were transferred to each microplate well in order to obtain a two-fold serial dilution in 100 µL of broth and 100 µL of inoculum containing 2–6 10^5 CFU of each bacterium were added to each well. Some wells were reserved for positive controls and inoculum viability.
On the technique in general: Broth dilution looks for growth in wells or tubes with falling amounts of substance.

For test [2], the system named is S. intermedius 1051997. Description: MIC, broth microdilution. Type of test: cell-based, Staphylococcus intermedius. Particulars: for MIC: Staphylococcus intermedius, 1051997, 24 h, 24 h. The method, then:
as §1, §2

The subject of test [3] is P. aeruginosa 1051575. The test is described as follows: MIC, broth microdilution. Type of test: cell-based, Pseudomonas aeruginosa. Particulars: for MIC: Pseudomonas aeruginosa, 1051575, 24 h, 24 h. The method, then: as §1, §2
Test [4] relates to P. aeruginosa ATCC 27853. The test is described as follows: MIC, broth microdilution. The format is cell-based, Pseudomonas aeruginosa. Particulars: Pseudomonas aeruginosa, ATCC27853, 24 h, ATCC strain. How it is done: as §1, §2
Test [5] has as its system Chinese hamster Ovary cells (CHO-K1). The test is described as follows: Cytotoxicity assay (WST-1 / Neutral Red). The format is cell-based. Particulars: 24-h incubation; for IC50: Cricetulus griseus, 24 h. The method, then:
The cytotoxic activities of compounds were assessed on Chinese hamster Ovary cells (CHO-K1) provided from ATCC-LGC Standards Sarl (Molsheim, France). Cells were maintained in Mc Coy’s 5A (CHO) medium supplemented with 10% bovine calf serum, 2 mM glutamine, and 100 U mL^−1/10 µg mL^−1 penicillin/streptomycin mixtures. For the cytotoxicity experiments, they were seeded in 96-well plates and incubated at 37 °C in humidified atmosphere containing 5% CO2 overnight, then concentrations of compounds were incorporated in triplicate cultures. After a 24-h incubation period at 37 °C, cells were submitted to three successive washes in phosphate buffer saline (PBS) and cell viability was evaluated by two different vital dyes: • i. A first set of cell cultures was incubated in PBS containing 10% WST-1 for 30 min at 37 °C, 5% CO2. Cell viability was evaluated by the assessment of WST-1 absorbance at 450 nm in a microplate spectrophotometer. • ii. A second set of cell cultures was placed into Neutral Red medium (50 μg mL^−1 Neutral Red in complete medium) and incubated for 3 h at 37 °C, 5% CO2. Then the Neutral Red medium was removed and the distaining solution (50% ethanol, 1% acetic acid, 49% distilled water; 50 µL per well) was added into the wells. The plates were shaken for 15–20 min at room temperature in the dark. Cell viability was evaluated by the assessment of absorbance at 540 nm in a microplate spectrophotometer.
Results were expressed as percentages of cell viability about the control (culture medium-only), which corresponded to 100% cell viability. Dose-response curves were calculated by non-linear regression analysis with TableCurve 2D software (V 5.0.1) (Systat Software Inc., San Jose, CA, USA). The Inhibitory Concentration 50% (IC50) was defined as the concentration of compounds that induced a 50% decrease of viable cells.

Test [6] deals with E. coli ATCC 25922. Description: MIC, broth microdilution. Particulars: Escherichia coli, ATCC25922, 24 h, ATCC strain. The format is cell-based, Escherichia coli. How it is done:
as §1, §2

For test [7], the system named is E. coli 1956. Description: MIC, broth microdilution. Particulars: Escherichia coli, 1956, 24 h. The format is cell-based, Escherichia coli. How it is done:
as §1, §2

The test system of test [8] is Gram-positive and Gram-negative human and veterinary reference strains. Description: MIC against the panel of Gram-positive and Gram-negative reference strains. The format is cell-based. Particulars: for MIC: over several or all of the tested pathogens; for Therapeutic Ratio (TR): IC50 (CHO)/MIC, over several of the tested pathogens.
Text: Typically, cytotoxicity was expressed as the half maximal inhibitory concentration (IC50), defined as the concentration of a compound that decreases cell viability by 50% relative to untreated cells. This parameter provides a quantitative measure of a compound’s toxic potential toward mammalian cells. To facilitate data interpretation, we defined the Therapeutic Ratio (TR) as the ratio of IC50 (µg/mL) to MIC (µg/mL). This dimensionless parameter provides a straightforward measure of antibacterial selectivity, allowing direct comparison of cytotoxicity and antibacterial potency. A high TR value indicates compounds with strong antibacterial activity at concentrations far below their cytotoxic threshold, whereas a TR close to unity reflects poor selectivity and limited therapeutic potential. […] Within the Claramine A series, variations in IC50 strongly impacted TR values (Figure 5).
as §1, §2

Test [9] concerns S. aureus ATCC 25923. Description: MIC, broth microdilution. The format is cell-based, Staphylococcus aureus. Particulars: Staphylococcus aureus, ATCC25923, 24 h, ATCC strain. The method, then: as §1, §2
Test [10] concerns S. aureus 340. Description: MIC, broth microdilution. Particulars: for MIC S. aureus 340: 24 h; for MIC: Staphylococcus aureus, 340, 24 h. The format is cell-based, Staphylococcus aureus. How it is done:
as §1, §2

Test [11] relates to S. aureus 340 and P. aeruginosa 1051575. Description: MIC against S. aureus and P. aeruginosa strains (Figure 6). The format is cell-based. Particulars: range over both strains, C-24 methyl ester series. How it is done: as §1, §2
Setting [12] is: Homo sapiens, 24 h, read-out: MIC.

Converted amounts (≈) assume the structure as drawn. Where two headings read alike, the source gives them in different places. A value given as a limit tells only on which side of the number the result lay.

In general, MIC refers to the lowest concentration found to suppress growth. As usually defined, the IC50 is the point on the concentration scale where inhibition reaches its midpoint. A low value points to higher potency. Regarding `CC(C)OC(=O)CCC(C)C1CCC2C3CCC4CC(NCCCNCCCCNCCCN)CCC4(C)C3CC(O)C12C` (stereo not drawn) [Claramine A01, 3-Spermino Isopropyl Deoxycholate], the MIC was determined as 30 µg/mL (≈ 48.5 µM) in [1]; 8 µg/mL (≈ 12.9 µM) in test [2]; 15 µg/mL (≈ 24.2 µM) in test [3]; 8 µg/mL (≈ 12.9 µM) in test [4]; 4 µg/mL (≈ 6.46 µM) in [6]; 15 µg/mL (≈ 24.2 µM) in test [7]. In addition, the minimal inhibitory concentration (MIC) is less than 15 µg/mL in [8] (setting [12]); “increased membrane permeabilization and concomitant disruption of proton homeostasis” in test [8]; 2 µg/mL (≈ 3.23 µM) in [9]; less than 4 µg/mL in test [10]. Also, the “IC50 CHO” value in test [5] was determined as 43 µg/mL (≈ 69.5 µM). The half-inhibitory concentration (IC50) in test [5] was more than 35 µg/mL. Besides, the “Therapeutic Ratio (TR)” value in [8] is reported as more than 5. In addition, the “MIC S. aureus 340” value in test [10] is 2 µg/mL (≈ 3.23 µM).

On to `COC(=O)CCC(C)C1CCC2C3CCC4CC(NCCCNCCCN)CCC4(C)C3CC(O)C12C` (stereo not drawn) [Claramine A08], for which the MIC was found to be 3 µg/mL (≈ 5.77 µM) in [1]; 0.4 µg/mL (≈ 0.77 µM) in test [2]; 3 µg/mL (≈ 5.77 µM) in test [3]; 3 µg/mL (≈ 5.77 µM) in [4]; 3 µg/mL (≈ 5.77 µM) in test [6]; 13 µg/mL (≈ 25 µM) in test [7]. Also, the MIC was less than 15 µg/mL in test [8] (setting [12]), 2 µg/mL (≈ 3.85 µM) in test [9] and 3 µg/mL (≈ 5.77 µM) in [10]. This compound registered an IC50 in test [5] of 21 µg/mL (≈ 40.4 µM). Further, the “Therapeutic Ratio (TR)” value in test [8] is more than 5.

Turning to `COC(=O)CCC(C)C1CCC2C3CCC4CC(NCCCNCCCNCCCN)CCC4(C)C3CC(O)C12C` (stereo not drawn) [Claramine A06], in [11], the MIC lay within 2 to 4 µg/mL (≈ 3.47 to 6.93 µM).

In turn, `COC(=O)CCC(C)C1CCC2C3CCC4CC(NCCCCCN)CCC4(C)C3CC(O)C12C` (stereo not drawn) [Claramine A12] had an MIC in test [11] of 6 to 50 µg/mL (≈ 12.2 to 102 µM).

For the compound `CC(C)OC(=O)CCC(C)C1CCC2C3CCC4CC(NCCCNCCCNCCCN)CCC4(C)C3CC(O)C12C` (stereo not drawn) [Claramine A02], the MIC in test [1] stood at 8 µg/mL (≈ 13.2 µM); in test [2] it was 2 µg/mL (≈ 3.31 µM); in test [3], 8 µg/mL (≈ 13.2 µM); in test [4], 8 µg/mL (≈ 13.2 µM); in test [6], 8 µg/mL (≈ 13.2 µM); in test [7], 15 µg/mL (≈ 24.8 µM). Besides, the MIC in test [8] (setting [12]) is less than 15 µg/mL; in [9], 4 µg/mL (≈ 6.61 µM); in [10] it was 2 µg/mL (≈ 3.31 µM). The compound further came in with an IC50 in [5] of 51 µg/mL (≈ 84.3 µM). In addition, the “Therapeutic Ratio (TR)” value in test [8] was more than 5.

In turn, `COC(=O)CCC(C)C1CCC2C3CCC4CC(NCCCN(C)CCCN)CCC4(C)C3CC(O)C12C` (stereo not drawn) [Claramine A16] yielded an MIC in test [11] of 7 to 14 µg/mL (≈ 13.1 to 26.2 µM).

`CC(C)OC(=O)CCC(C)C1CCC2C3CCC4CC(NCCCNCCCCN)CCC4(C)C3CC(O)C12C` (stereo not drawn) [Claramine A03]: the MIC in test [1] is 14 µg/mL (≈ 24.9 µM); in [2] it was 4 µg/mL (≈ 7.12 µM); in [3], 14 µg/mL (≈ 24.9 µM); in test [4], 14 µg/mL (≈ 24.9 µM); in test [6] it was 14 µg/mL (≈ 24.9 µM); in [7] it was 14 µg/mL (≈ 24.9 µM). Besides, the minimum inhibitory concentration (MIC) in test [8] (setting [12]) is less than 15 µg/mL; in test [9], 7 µg/mL (≈ 12.5 µM); in test [10] it was 2 µg/mL (≈ 3.56 µM). Also, in [5], the IC50 worked out at 73 µg/mL (≈ 130 µM). For the same compound, the “Therapeutic Ratio (TR)” value in test [8] was more than 5.

Take `COC(=O)CCC(C)C1CCC2C3CCC4CC(NCCCCN)CCC4(C)C3CC(O)C12C` (stereo not drawn) [Claramine A11]: the minimum inhibitory concentration (MIC) in test [11] was in the range of 6 to 50 µg/mL (≈ 12.6 to 105 µM).

Turning to `COC(=O)CCC(C)C1CCC2C3CCC4CC(NCCCNCCCN)CCC4(C)C3CCC12C` (stereo not drawn) [Claramine E09], the MIC in test [1] is 32 µg/mL (≈ 63.5 µM); in test [2], 0.7 µg/mL (≈ 1.39 µM); in [4], 32 µg/mL (≈ 63.5 µM); in test [6], 32 µg/mL (≈ 63.5 µM); in test [7], 3 µg/mL (≈ 5.95 µM); in [8] (Homo sapiens, 24 h), 0.7 to 30 µg/mL (≈ 1.39 to 59.5 µM). Besides, the results for the MIC in test [9] and in test [10] were 16 µg/mL (≈ 31.8 µM) and 1 µg/mL (≈ 1.98 µM), respectively. Besides, the “Therapeutic Ratio (TR)” value in test [2] (IC50 (CHO)/MIC, S. intermedius) is 65–114; in test [3] (IC50 (CHO)/MIC, P. aeruginosa), more than 10. The “IC50 CHO” value in test [5] amounted to 80 µg/mL (≈ 159 µM). Further, the half-maximal inhibitory concentration (IC50) in [5] was more than 60 µg/mL. In addition, the “MIC S. aureus 340” value in test [10] turned out to be 0.7 µg/mL (≈ 1.39 µM).

`COC(=O)CCC(C)C1CCC2C3CCC4CC(NCCNCCNCCNCCNCN)CCC4(C)C3CC(O)C12C` (stereo not drawn) [Claramine A15]: the MIC in test [1] is 16 µg/mL (≈ 26.4 µM); in test [2], 1 µg/mL (≈ 1.65 µM); in [3], 8 µg/mL (≈ 13.2 µM); in test [4], 8 µg/mL (≈ 13.2 µM); in [6], 8 µg/mL (≈ 13.2 µM); in [7], 14 µg/mL (≈ 23.1 µM). Moreover, the MIC is less than 15 µg/mL in [8] (setting [12]), 4 µg/mL (≈ 6.59 µM) in [9] and 6 µg/mL (≈ 9.89 µM) in [10]. In test [5], this compound displayed an IC50 of 93 µg/mL (≈ 153 µM). The “Therapeutic Ratio (TR)” value in [8] was more than 5.

`COC(=O)CCC(C)C1CCC2C3CCC4CC(NCCCN(CCCN)CCCN)CCC4(C)C3CC(O)C12C` (stereo not drawn) [Claramine A17] came in with an MIC in test [11] of 7 to 14 µg/mL (≈ 12.1 to 24.3 µM).

In [11], `COC(=O)CCC(C)C1CCC2C3CCC4CC(NCCCNCCCCNCCCN)CCC4(C)C3CC(O)C12C` (stereo not drawn) [Claramine A05] gave an MIC of 2 to 4 µg/mL (≈ 3.38 to 6.77 µM). In test [5], this compound showed an IC50 of 8 µg/mL (≈ 13.5 µM).

(Values after publication PMC12693182, “Synthesis and QSAR Studies of Claramine Derivatives, a New Class of Broad-Spectrum Antimicrobial Agents” (Molecules, 2025).)
